Assay results reported in patent US20240208950A1, “COMPOSITIONS AND METHODS FOR TREATMENT OF CERVICAL AND OVARIAN CANCER” (SOUTH DAKOTA BOARD OF REGENTS, priority 2021, published 2024).

Test system: ovarian cancer cell line A2780
Assay: MTT cell viable assay (cytotoxicity and anti-proliferation)
Format: cell-based
Settings: Homo sapiens
Experimental: A biological assay was performed to study the potency of ORM-analogs by observing their pharmaceutical effects on living tissue (in vitro) and the effects of these analogs of unknown potency were compared to the effects of the standard (ormeloxifene). An MTT cell viable assay was first conducted to measure the cytotoxicity and anti-proliferation activity of synthesized analogs (Table 2 and FIG. 2).

Compound `COc1ccc2c(c1)OC(C)(C)C(c1ccccc1)C2c1ccc(OCCN2CCCC2)cc1` (stereo not shown) [Ormeloxifene, reference compound] has an IC50 of 17.5 µM.
